Nine compounds from ChEMBL document CHEMBL3352640, “Carbonic anhydrase inhibitors: design, synthesis, and biological evaluation of novel sulfonyl semicarbazide derivatives” (ACS Med Chem Lett, 2014) can be followed below.

The test addresses Carbonic anhydrase 9 (Homo sapiens, UniProt Q16790). Put plainly: Inhibition of human carbonic anhydrase 9 preincubated for 15 mins by stopped flow CO2 hydration assay.

The compound `NS(=O)(=O)c1ccc(NC(=O)NNS(=O)(=O)c2ccccc2)cc1` registered an inhibition constant Ki of 73.9 nM.
Then `NS(=O)(=O)c1ccc(NC(=O)NNS(=O)(=O)c2ccc(F)cc2)cc1`, with 25.1 nM; and `NS(=O)(=O)c1ccc(NC(=O)NNS(=O)(=O)c2ccc(Cl)cc2)cc1`, with 23.1 nM.
As for `NS(=O)(=O)c1ccc(NC(=O)NNS(=O)(=O)c2ccc(Br)cc2)cc1`, affinity was put at a Ki of 30.4 nM.
For the compound `Cc1ccc(S(=O)(=O)NNC(=O)Nc2ccc(S(N)(=O)=O)cc2)cc1`, the affinity corresponds to a Ki of 24 nM.
Then `NS(=O)(=O)c1ccc(NC(=O)NNS(=O)(=O)c2ccc([N+](=O)[O-])cc2)cc1`, with 20.5 nM; and `NS(=O)(=O)c1ccc(NC(=O)NNS(=O)(=O)c2ccc(Cl)c([N+](=O)[O-])c2)cc1`, with 38.7 nM; and `COc1ccc(S(=O)(=O)NNC(=O)Nc2ccc(S(N)(=O)=O)cc2)cc1`, with 80.4 nM.
In turn, `CC(=O)Nc1ccc(S(=O)(=O)NNC(=O)Nc2ccc(S(N)(=O)=O)cc2)cc1` displayed a Ki of 81.3 nM.
